# Laboratory results: publication PMC12610274, “Identification of Marrubiin as a Cathepsin C Inhibitor for Treating Rheumatoid Arthritis” (Molecules, 2025)
# What was measured:
# [1] = biological target: T1, intracellular CTSC (Homo sapiens, UniProt P53634); assay: CTSC cell-based assay using the U937 cell line; conditions: read-out: Cell-Based Enz (IC50: nM)
# T1 construct: endogenous in cells; host or cells: U937
# Description: Cell-based CTSC enzymatic activity assays were performed in 96-well clear-bottom black microplates. […] The detection substrate, H-Gly-Arg-AFC, was diluted to 100 µM in serum-free medium and stored for later use. U937 cells in the logarithmic growth phase were harvested, washed with PBS, and counted. A single-cell suspension was prepared at a density of 1.0 × 10^6 cells/mL using serum-free medium. 30 µL of cell suspension was seeded into each well of the 96-well plate. To the test wells, 10 µL of the compound working solution was added, while 10 µL of serum-free medium was added to the control wells. The plate was pre-incubated in a cell culture incubator at 37 °C for 3 h. Subsequently, 10 µL of H-Gly-Arg-AFC was added to initiate the enzymatic reaction, and the plate was further incubated at 37 °C for 1 h. Fluorescence measurements were performed using a multimode microplate reader at excitation/emission wavelengths of 400/505 nm. Each group of tests was independently repeated at least 3 times, and IC50 values were calculated using SPSS 10.0.
# [2] = biological target: T2, CTSB (Homo sapiens, UniProt P07858); assay: Human recombinant cathepsins isolated enzyme assay, CTSB; type: biochemical; conditions: read-out: CTSB Enz (IC50: μM)
# T2 construct: purchased R&D Systems
# Description: The protocol for evaluating the inhibitory potency of compounds against other cathepsins referred to the CTSC activity assay. Recombinant human CTSB, CTSL, CTSS and CTSK for testing were also purchased from R&D Systems Biotechnology Company. Recombinant human Cat G, NE, and PR3 For testing were purchased from MedChemExpress. A multi-functional microplate reader was used to measure the absorption of Z-Leu-Arg-AMC at excitation/emission wavelengths of 380/460 nm to assess the activity changes of CTSB and CTSL, while the absorption of MCA-Arg-Pro-Lys-Pro-Val-Glu-NVAL-Trp-Arg-Lys(DNP)-NH2 at 320/405 nm was measured to evaluate the activity changes of CTSS and CTSK. Different assay buffers were prepared for diluting samples and measuring the activities of specific NSPs: a buffer containing 50 mM Tris and 750 mM NaCl (pH 7.4) was used for NE and PR3; a buffer containing 50 mM Tris, 750 mM NaCl, 5 mM EDTA (pH 7.4) was used for Cat G; and a buffer containing 25 mM MES, 50 mM NaCl, 5 mM DTT (pH 6.0) was used for CTSC. Synthetic substrates were employed to assess the activities of NSPs and CTSC: H-Gly-Arg-AMC for CTSC, N-MeSuc-Ala-Ala-Pro-Val-pNA for NE, aminobenzoyl-Val-Ala-Asp-Cys-Ala-Asp-Gln-ethylenediamine 2,4-dinitrophenyl for PR3, and N-Suc-Ala-Ala-Pro-Phe-pNA for Cat G. Each group of tests was independently repeated at least 3 times, and IC50 values were calculated using SPSS 10.0.
# [3] = test system: PR3; assay: PR3 activity in blood and bone marrow of mice; type: in vivo, C57BL/6 mice; conditions: 30 mg/kg daily gavage, 7 days
# Description: A total of 25 C57BL/6 mice (6–8 weeks old, weighing approximately 20 g, with equal numbers of males and females) were randomly divided into five groups. Mice in the compound-treated groups were orally administered the compound once daily at doses of 0.3, 3, and 30 mg/kg for 7 consecutive days. […] Mice in the normal group were given an equal volume of normal saline at the same time points. The body weight, death rate, and behavior were observed and recorded daily for one week. After 7 days, bone marrow and blood samples were collected from the mice and lysed using 8% Triton X-100 buffer. The lysates were stored at −20 °C until testing. The activity assays for CTSC and NSPs were performed as described above. The mice were anesthetized and the tissues were taken for H&E staining.
# [4] = test system: AIA model; assay: Adjuvant-induced arthritis (AIA) model, disease severity; type: in vivo, Sprague-Dawley rats; conditions: rat AIA
# Description: (§1) Thirty 4-week-old male Sprague-Dawley rats (weighing 120–130 g) were randomly divided into 6 groups (5 rats per group) after 1 week of adaptive feeding, namely the normal group, model group, low-dose experimental group (15 mg/kg), medium-dose experimental group (30 mg/kg), high-dose experimental group (60 mg/kg), and positive control group (30 mg/kg). Starting from Day 0 of the experiment, rats in the administration groups and model group were injected intradermally with 0.1 mL of CFA into the left hind paw to induce AIA, while rats in the normal group were injected intradermally with an equal volume (0.1 mL) of normal saline as a control. After 13 consecutive days of feeding, rats treated with CFA successfully developed typical AIA symptoms. […] During the experiment, the body weight, mental state, activity ability, hair color changes, and paw appearance changes of the rats were observed and recorded daily. In addition, on Day 0 of the experiment (baseline period), the basic paw volume of all rats was accurately measured using a plethysmometer, which served as a reference standard for subsequent evaluation of inflammation severity. From Day 13 to Day 28 of the experiment, the paw volume of the rats was measured repeatedly every 3 days. The degree of paw swelling was quantified by calculating the change in paw volume relative to the baseline. Meanwhile, the arthritis index score was calculated based on the range of paw redness and swelling, the severity of swelling, and the degree of limb movement limitation, so as to comprehensively evaluate the inflammatory state. On Day 28 of the experiment (the end of the administration cycle), blood samples were collected via abdominal aortic puncture. The blood samples were centrifuged at 3000 rpm for 20 min, and the upper serum was collected and stored at −20 °C for subsequent detection. The rats were then sacrificed, and their ankle joint tissues were harvested for subsequent pathological section observation and analysis. The cytokine levels in serum were measured. The activity detection of CTSC and NSPs was carried out according to the above methods.
# [5] = test system: PR3; assay: AIA model, serum PR3 activity; type: in vivo, Sprague-Dawley rats; conditions: rat AIA, high dose 60 mg/kg gavage, 15 days
# Description: as §1, with “Meanwhile, the arthritis index score was calculated based on the range of paw redness and swelling, the severity of swelling, and the degree of limb movement limitation, so as to comprehensively evaluate the inflammatory state. On Day 28 of the experiment (the end of the administration cycle), blood samples were collected via abdominal aortic puncture. The blood samples were centrifuged at 3000 rpm for 20 min, and the upper serum was collected and stored at −20 °C for subsequent detection. The rats were then sacrificed, and their ankle joint tissues were harvested for subsequent pathological section observation and analysis.” left out, “The activity detection of CTSC and NSPs was carried out according to the above methods.” left out
# T1 sequence (P53634 25-463): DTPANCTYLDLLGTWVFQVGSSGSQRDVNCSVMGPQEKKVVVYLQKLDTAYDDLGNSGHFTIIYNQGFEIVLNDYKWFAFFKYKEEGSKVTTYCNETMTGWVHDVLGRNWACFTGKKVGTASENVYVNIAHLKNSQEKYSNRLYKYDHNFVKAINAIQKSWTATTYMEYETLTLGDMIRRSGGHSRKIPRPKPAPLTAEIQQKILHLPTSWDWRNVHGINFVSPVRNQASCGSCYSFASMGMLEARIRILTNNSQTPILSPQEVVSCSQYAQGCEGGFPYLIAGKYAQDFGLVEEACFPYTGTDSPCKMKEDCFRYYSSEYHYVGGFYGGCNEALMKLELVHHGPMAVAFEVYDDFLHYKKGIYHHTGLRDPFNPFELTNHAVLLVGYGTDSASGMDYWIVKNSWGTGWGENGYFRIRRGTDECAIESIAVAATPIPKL
smiles,measurement,setting,value
"C[C@@H]1C[C@H]2OC(=O)[C@@]3(C)CCC[C@@](C)([C@@H]23)[C@@]1(O)CCc1ccoc1 [Marrubiin, marrubiin]",IC50,[1],51.6 ± 3.2 nM
same,IC50,[2],9.8 ± 1.1 µM
same,remaining activity rate of PR3,[3]; blood,~13.6%
same,remaining activity rate of PR3,[3]; bone marrow,~25.8%
same,clinical score vs AIA model group,"[4]; 60 mg/kg gavage, from day 16 onwards",significantly lower than those of AIA model group
same,body weight recovery,"[4]; 60 mg/kg, from day 16 onwards",most significant weight recovery effects
same,"histopathology of ankle joints (H&E, Safranin O/Fast Green)","[4]; different doses (15, 30, 60 mg/kg)",reduced the histopathological statement
same,volume and thickness of inflamed paws,"[4]; different doses (15, 30, 60 mg/kg), days 16 to 28",continuous reduction in volume and a gradual decrease in thickness
same,"serum PR3 activity, % of control group",[5],~50%
